According to US12180193B2, “Accelerating fibrosarcoma protein degrading compounds and associated methods of use” (Arvinas Operations, Inc., priority 2020, dated 2024):

Columns and labels:
BRAF V600E = biological target: T1, BRAF V600E (Homo sapiens, UniProt P15056, V600E); assay: Cellular assay of target protein degradation, T-Rex 293 cells stably transfected with HA-BRAF_V600E (HA immunofluorescence, high content imaging); assay type: cell-based; details: T-Rex 293 HA-BRAF V600E; for DC50: half maximal degradation, read-out: BRaf V600E DC50; for Dmax: maximum degradation observed
T1 construct: expressed in transfected cells
In short: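 24 h compound exposure, 1 μM–0.1 nM final, 0.1% DMSO, 37 °C; cells induced with 1 ng/mL doxycycline. PFA fix, Triton permeabilize, anti-HA overnight 4 °C, Hoechst/phalloidin counterstain. Output: DC50, Dmax as % control.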

BRAF G466V = biological target: T2, BRAF G466V (Homo sapiens, UniProt P15056, G466V); assay: Cellular assay of target protein degradation, T-Rex 293 cells stably transfected with HA-BRAF G466V (HA immunofluorescence, high content imaging); assay type: cell-based; details: T-Rex 293 HA-BRAF G466V; for DC50: half maximal degradation, read-out: BRaf G466V DC50; for Dmax: maximum degradation observed
T2 construct: expressed in transfected cells
In short: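 24 h compound, 30 nM–3 pM final, 0.1% DMSO, 37° C; HA-BRAF G466V induced with 0.75 ng/mL doxycycline. PFA fix, Triton perm, anti-HA + Alexa fluor secondary, Hoechst/phalloidin counterstain; imaging. DC50, Dmax (% of control).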

T2 sequence (P15056 whole entry G466V): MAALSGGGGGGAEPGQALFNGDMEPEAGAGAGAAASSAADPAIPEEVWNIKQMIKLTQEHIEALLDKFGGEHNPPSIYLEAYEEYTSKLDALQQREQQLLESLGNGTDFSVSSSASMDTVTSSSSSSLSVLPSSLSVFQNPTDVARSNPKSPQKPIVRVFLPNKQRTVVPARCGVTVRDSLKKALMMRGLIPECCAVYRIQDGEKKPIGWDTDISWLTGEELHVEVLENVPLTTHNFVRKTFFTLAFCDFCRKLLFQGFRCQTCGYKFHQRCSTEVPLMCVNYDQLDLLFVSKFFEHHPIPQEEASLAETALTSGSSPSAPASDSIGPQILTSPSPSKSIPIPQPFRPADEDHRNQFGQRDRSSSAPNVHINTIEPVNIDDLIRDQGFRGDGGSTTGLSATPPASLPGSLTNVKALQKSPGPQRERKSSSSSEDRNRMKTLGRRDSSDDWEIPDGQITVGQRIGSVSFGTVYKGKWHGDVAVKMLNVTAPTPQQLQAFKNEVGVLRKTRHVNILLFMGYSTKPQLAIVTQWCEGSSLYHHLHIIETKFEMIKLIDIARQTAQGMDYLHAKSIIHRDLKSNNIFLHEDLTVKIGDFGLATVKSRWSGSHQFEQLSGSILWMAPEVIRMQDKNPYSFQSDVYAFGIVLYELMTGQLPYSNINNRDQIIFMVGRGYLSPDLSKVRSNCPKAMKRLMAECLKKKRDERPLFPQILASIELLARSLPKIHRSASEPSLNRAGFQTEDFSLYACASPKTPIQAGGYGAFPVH
T1 sequence (P15056 whole entry V600E): as the sequence (P15056 whole entry G466V) above, with V466G, V600E counted along it

Compound	DC50 (BRAF V600E)	Dmax (BRAF V600E)	DC50 (BRAF G466V)	Dmax (BRAF G466V)
O=C1CCC(N2Cc3cc(N4CC(C5CN(c6ccc(-c7cnc8[nH]cc(C(=O)c9c(F)ccc(NS(=O)(=O)N%10CC[C@@H](F)C%10)c9F)c8c7)cc6)C5)C4)ccc3C2=O)C(=O)N1 (stereo partly drawn) [Compound 159, (3R)-N-{3-[5-(4-{1′-[2-(2,6-dioxopiperidin-3-yl)-1-oxo-2,3-dihydro-1H-isoindol-5-yl]-[3,3′-biazetidin]-1-yl}phenyl)-1H-pyrrolo[2,3-b]pyridine-3-carbonyl]-2,4-difluorophenyl}-3-fluoropyrrolidine-1-sulfonamide]	> 500 nM		> 30 nM	
O=C1CCC(N2Cc3cc(N4CCC(CN5CCN(C6(c7ccc(-c8cnc9[nH]cc(C(=O)c%10c(F)ccc(NS(=O)(=O)N%11CC[C@@H](F)C%11)c%10F)c9c8)cc7)CC6)CC5)CC4)ccc3C2=O)C(=O)N1 (stereo partly drawn) [Compound 162, (3R)-N-{3-[5-(4-{1-[4-({1-[2-(2,6-dioxopiperidin-3-yl)-1-oxo-2,3-dihydro-1H-isoindol-5-yl]piperidin-4-yl}methyl)piperazin-1-yl]cyclopropyl}phenyl)-1H-pyrrolo[2,3-b]pyridine-3-carbonyl]-2,4-difluorophenyl}-3-fluoropyrrolidine-1-sulfonamide]	50 to 500 nM	< 35%	1 to 10 nM	35 to 70%
COc1cc(C2CCN(CC3CCN(c4ccc(-c5cnc6[nH]cc(C(=O)c7c(F)ccc(NS(=O)(=O)N8CC[C@@H](F)C8)c7F)c6c5)cc4F)CC3)CC2)cc2c1C(=O)N(C1CCC(=O)NC1=O)C2 (stereo partly drawn) [Compound 163, (3R)-N-[3-(5-{4-[4-({4-[2-(2,6-dioxopiperidin-3-yl)-7-methoxy-1-oxo-2,3-dihydro-1H-isoindol-5-yl]piperidin-1-yl}methyl)piperidin-1-yl]-3-fluorophenyl}-1H-pyrrolo [2,3-b]pyridine-3-carbonyl)-2,4-difluorophenyl]-3-fluoropyrrolidine-1-sulfonamide]	5 to 50 nM	35 to 70%	1 to 10 nM	> 70%
COc1cc(C2CCN(CC3CCN(c4ccc(-c5cnc6[nH]cc(C(=O)c7c(F)ccc(NS(=O)(=O)N8CC[C@@H](F)C8)c7F)c6c5)cn4)CC3)CC2)cc2c1C(=O)N(C1CCC(=O)NC1=O)C2 (stereo partly drawn) [Compound 164, (3R)-N-[3-(5-{6-[4-({4-[2-(2,6-dioxopiperidin-3-yl)-7-methoxy-1-oxo-2,3-dihydro-1H-isoindol-5-yl]piperidin-1-yl}methyl)piperidin-1-yl]pyridin-3-yl}-1H-pyrrolo[2,3-b]pyridine-3-carbonyl)-2,4-difluorophenyl]-3-fluoropyrrolidine-1-sulfonamide]	5 to 50 nM	35 to 70%	< 1 nM	> 70%
O=C1CC[C@H](N2Cc3cc(OC[C@@H](O)CN4CC5(C4)CN(c4ccc(-c6cnc7[nH]cc(C(=O)c8c(F)ccc(NS(=O)(=O)N9CC[C@@H](F)C9)c8F)c7c6)cc4)C5)ccc3C2=O)C(=O)N1 [Compound 165, (3R)-N-{3-[5-(4-{6-[(2S)-3-({2-[(3S)-2,6-dioxopiperidin-3-yl]-1-oxo-2,3-dihydro-1H-isoindol-5-yl}oxy)-2-hydroxypropyl]-2,6-diazaspiro[3.3]heptan-2-yl}phenyl)-1H-pyrrolo[2,3-b]pyridine-3-carbonyl]-2,4-difluorophenyl}-3-fluoropyrrolidine-1-sulfonamide]	5 to 50 nM	35 to 70%	1 to 10 nM	> 70%
O=C1CC[C@@H](N2Cc3cc(OC[C@@H](O)CN4CC5(C4)CN(c4ccc(-c6cnc7[nH]cc(C(=O)c8c(F)ccc(NS(=O)(=O)N9CC[C@@H](F)C9)c8F)c7c6)cc4)C5)ccc3C2=O)C(=O)N1 [Compound 166, (3R)-N-{3-[5-(4-{6-[(2)S-3-({2-[(3R)-2,6-dioxopiperidin-3-yl]-1-oxo-2,3-dihydro-1H-isoindol-5-yl}oxy)-2-hydroxypropyl]-2,6-diazaspiro[3.3]heptan-2-yl}phenyl)-1H-pyrrolo[2,3-b]pyridine-3-carbonyl]-2,4-difluorophenyl}-3-fluoropyrrolidine-1-sulfonamide]	5 to 50 nM	35 to 70%	1 to 10 nM	> 70%

Results, then the molecule that gave them:

DC50 (BRAF V600E)	Dmax (BRAF V600E)	DC50 (BRAF G466V)	Dmax (BRAF G466V)	Compound
5 to 50 nM	35 to 70%	1 to 10 nM	> 70%	O=C1CCN(c2ccc(N3CCC(CN4CC5(C4)CN(c4ccc(-c6cnc7[nH]cc(C(=O)c8c(F)ccc(NS(=O)(=O)N9CC[C@@H](F)C9)c8F)c7c6)cc4)C5)CC3)cc2F)C(=O)N1 [Compound 156, (3R)-N-[3-(5-{4-[6-({1-[4-(2,4-dioxo-1,3-diazinan-1-yl)-3-fluorophenyl]piperidin-4-yl}methyl)-2,6-diazaspiro[3.3]heptan-2-yl]phenyl}-1H-pyrrolo[2,3-b]pyridine-3-carbonyl)-2,4-difluorophenyl]-3-fluoropyrrolidine-1-sulfonamide]
5 to 50 nM	35 to 70%	1 to 10 nM	> 70%	O=C1CCC(N2Cc3cc(C4CCN(CC5CCN(c6ccc(-c7cnc8[nH]cc(C(=O)c9c(F)ccc(NS(=O)(=O)N%10CC[C@@H](F)C%10)c9F)c8c7)cc6)CC5)CC4)c(F)cc3C2=O)C(=O)N1 (stereo partly drawn) [Compound 157, (3R)-N-[3-(5-{4-[4-({4-[2-(2,6-dioxopiperidin-3-yl)-6-fluoro-1-oxo-2,3-dihydro-1H-isoindol-5-yl]piperidin-1-yl}methyl)piperidin-1-yl]phenyl}-1H-pyrrolo[2,3-b]pyridine-3-carbonyl)-2,4-difluorophenyl]-3-fluoropyrrolidine-1-sulfonamide]
5 to 50 nM	35 to 70%	1 to 10 nM	> 70%	O=C1CCC(N2Cc3cc(N4CC5(CN(CCOc6ccc(-c7cnc8[nH]cc(C(=O)c9c(F)ccc(NS(=O)(=O)N%10CC[C@@H](F)C%10)c9F)c8c7)cn6)C5)C4)ccc3C2=O)C(=O)N1 (stereo partly drawn) [Compound 158, (3R)-N-(3-{5-[6-(2-{6-[2-(2,6-dioxopiperidin-3-yl)-1-oxo-2,3-dihydro-1H-isoindol-5-yl]-2,6-diazaspiro[3.3]heptan-2-yl}ethoxy)pyridin-3-yl]-1H-pyrrolo[2,3-b]pyridine-3-carbonyl}-2,4-difluorophenyl)-3-fluoropyrrolidine-1-sulfonamide]
< 5 nM	35 to 70%	< 1 nM	> 70%	O=C1CC[C@H](N2Cc3cc(C4CCN(CC5CCN(c6ccc(-c7cnc8[nH]cc(C(=O)c9c(F)ccc(NS(=O)(=O)N%10CC[C@@H](F)C%10)c9F)c8c7)cc6)CC5)CC4)ccc3C2=O)C(=O)N1 [Compound 160, (3R)—N-[3-[5-[4-[4-[[4-[2-[(3S)-2,6-dioxo-3-piperidyl]-1-oxo-isoindolin-5-yl]-1-piperidyl]methyl]-1-piperidyl]phenyl]-1H-pyrrolo[2,3-b]pyridine-3-carbonyl]-2,4-difluoro-phenyl]-3-fluoro-pyrrolidine-1-sulfonamide]
5 to 50 nM	35 to 70%	< 1 nM	> 70%	O=C1CC[C@@H](N2Cc3cc(C4CCN(CC5CCN(c6ccc(-c7cnc8[nH]cc(C(=O)c9c(F)ccc(NS(=O)(=O)N%10CC[C@@H](F)C%10)c9F)c8c7)cc6)CC5)CC4)ccc3C2=O)C(=O)N1 [Compound 161, (3R)-N-{3-[5-(4-{4-[(4-{2-[(3R)-2,6-dioxopiperidin-3-yl]-1-oxo-2,3-dihydro-1H-isoindol-5-yl}lpiperidin-1-yl)methyl]piperidin-1-yl}phenyl)-1H-pyrrolo[2,3-b]pyridine-3-carbonyl]-2,4-difluorophenyl}-3-fluoropyrrolidine-1-sulfonamide]
